In general, kon refers to the rate constant with which the complex forms. Low readings indicate slower complex formation, high ones faster complex formation.

Like-named read-outs stand apart in the source and are kept apart here. Marks after values point to notes of the source that are not given here.

The source of these data is PMC11050823, “The Cyclic Imine Core Common to the Marine Macrocyclic Toxins Is Sufficient to Dictate Nicotinic Acetylcholine Receptor Antagonism” (Marine Drugs, 2024).

One test addresses A-AChBP (Aplysia californica, UniProt Q8WSF8). The test can be described thus: Scintillation proximity assay, competition against [3H]methyllycaconitine binding to A-AChBP. The arrangement: made in house; host or cells: stably transfected HEK293S-GnTI- cells. Here is the method: (§1) Equilibrium dissociation constants were determined either from ratios (Kd/(koff/kon)) of rate constants determined using multiple kinetic means (kon, koff, koff/GAL) or directly from stopped-flow measurements (Kd/SFeq, Kd/SPAeq) (see Experimental Procedures).
(§2) The procedures for stable expression and purification of A- and L-AChBPs are described in Appendix D. Rate constants for association (kon) and dissociation (koff) were determined by multiple kinetic means, largely as previously described. Measurement of kon and koff values entailed the direct admixture of reactants and monitoring the quenching of AChBP native Trp fluorescence. Individual rate constants were determined from linear regression of the experimental mono-exponential decay of Trp fluorescence intensity (kobs) using the linear “approach-to-equilibrium” relationship kobs = kon[spiroimine] + koff (Equation (3)). Additional measurements of koff (koff/GAL) employed stopped-flow measurement of the rate of occupation of free AChBP binding sites by a competing ligand (gallamine, used in large excess relative to its Kd) to form a non-quenching gallamine-AChBP complex. Equilibrium dissociation constants were determined either from the ratios of rate constants (Kd/(koff/kon)), or from stopped-flow measurements of the rates of gallamine or epibatidine binding to pre-equilibrated spiroimine-AChBP complexes formed using increasing spiroimine concentrations (Kd/SFeq), or by the scintillation proximity assay (SPA) where spiroimine competition against the binding of [^3H]epibatidine (to L-AChBP) or [^3H]methyllycaconitine (to A-AChBP) was monitored at equilibrium (Kd/SPAeq). […] The time course of [^3H]ligand binding was monitored over several hours.
(§3) A- and L-AChBP, flanked with an N-terminal FLAG epitope with residues numbered (-8)[…](0), were expressed as soluble, exported proteins using synthetic cDNA and stably-transfected HEK293S-GnTI^− cells selected for G418 resistance, and cultured in Dulbecco’s modified Eagle’s medium (MediaTech CellGro, Albany, NY, USA) containing fetal bovine serum (FBS) 2% (v/v). […]
(In general: Scintillation proximity formats need no separation of bound from free tracer.)

The target of test [1] is T1, L-AChBP (Lymnaea stagnalis, UniProt P58154).
T1 construct: made in house; host or cells: stably transfected HEK293S-GnTI- cells
T1 sequence (P58154 20-229): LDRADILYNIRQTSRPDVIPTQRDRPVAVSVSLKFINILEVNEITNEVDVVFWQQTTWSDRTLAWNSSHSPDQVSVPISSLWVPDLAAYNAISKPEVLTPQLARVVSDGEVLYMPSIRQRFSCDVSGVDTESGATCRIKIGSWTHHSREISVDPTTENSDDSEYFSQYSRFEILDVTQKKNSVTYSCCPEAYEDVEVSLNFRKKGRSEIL
The test can be described thus: Stopped-flow Trp fluorescence kinetic and equilibrium binding to purified L-AChBP. Particulars: for Kd / kon / koff: L-AChBP. The method, then:
as §1, §2
A- and L-AChBP, flanked with an N-terminal FLAG epitope with residues numbered (-8)[…](0), were expressed as soluble, exported proteins using synthetic cDNA and stably-transfected HEK293S-GnTI^− cells selected for G418 resistance, and cultured in Dulbecco’s modified Eagle’s medium (MediaTech CellGro, Albany, NY, USA) containing fetal bovine serum (FBS) 2% (v/v). The conditioned medium was collected every 1–3 days for up to 4 weeks, supplemented with NaN3 0.02% (w/v) and stored at 4 °C. AChBPs were purified on immobilized anti-FLAG M2 antibody (Sigma-Aldrich) with elution using FLAG peptide 100 μg/mL in TRIS-HCl 50 mM pH 7.4, NaCl 150 mM, NaN3 0.02% (w/v). Purified proteins were dialyzed against the same buffer, concentrated by ultrafiltration, filtered on a 0.22 µm membrane, and stored on ice at 4 °C.

Test [2] concerns the target Torpedo muscle-type α1_2βγδ nAChR (Torpedo marmorata, UniProt P02711+Q6S3H8+Q6S3H9). The test can be described thus: Manual TEVC recording of ACh-evoked currents in Xenopus oocytes micro-transplanted with Torpedo electrocyte membranes. It counts as cell-based. Particulars: for Hill Slope: concentration-inhibition curve, ACh 25 µM. From the text:
Functional analysis of the (±)-4 racemate and (+)-4 R and (−)-4 S enantiomers used either manual or automated two-electrode voltage-clamp (TEVC) recordings on Xenopus laevis oocytes at −60 mV holding membrane potential. The oocytes were either micro-transplanted with Torpedo α1_2βγδ-enriched electrocyte membranes or transfected with human α7 or α4β2-encoding cDNAs. When applied alone (see Experimental Procedures), none of the three spiroimines induced nAChR channel opening, thereby discarding any agonistic activity toward these nAChR subtypes. Instead, when applied together with ACh at its EC50 concentration for each nAChR subtype, all three spiroimines clearly behaved as nicotinic antagonists, whose potency depended on the receptor subtype examined (Figure 2; Table 1).
The sources for live animals and biological materials, the procedures for nAChR microtransplantation and expression in oocytes, and the procedures for manual (α1_2βγδ nAChR) and automated (α7 and α4β2 nAChRs) TEVC recording are detailed in Appendix C. […] Then, the oocyte was perfused for 45 s with the tested spiroimine at a given concentration, immediately followed by the co-application of ACh and the spiroimine at the same concentrations and times as indicated above. The oocyte was washed with Ringer’s solution, and then recovery of the ACh-evoked current was recorded.
The concentration–inhibition curves were analyzed as previously detailed using the equation I = Imax [L]^nH/(EC50^nH + [L]^nH) (Equation (1)), where I is the measured agonist-evoked current, [L] is the agonist concentration, EC50 is the agonist concentration that evoked half the maximal current (I^max), and nH is the Hill coefficient. For antagonist inhibition, current (I) values were normalized to the I^max value recorded from the same oocyte to yield the fractional (%) response data. IC50 values were established from the concentration–response curves by fitting to the equation F = 1/[1 + ([X]/IC50)^nH] (Equation (2)), where F is the fractional response obtained in the presence of the inhibitor at concentration [X], and IC50 is the inhibitor concentration reducing the ACh-evoked amplitude by half. Data analysis was performed without constraints as Log[spiroimine] versus response (three parameters), with a Hill slope ~1. Statistical significance of differences between the control and test values was assessed using either the two-tailed Student’s “t” test or the Kolmogorov–Smirnov two-sample test and p < 0.05.
Torpedo membranes containing α1_2βγδ nAChR were microtransplanted into the oocyte cytoplasm by microinjecting a membrane suspension (50 nL at 2.5 µg/µL, i.e., 125 ng total protein, in 5 mM glycine) with an electronic micro-injector (Nanoliter2000 Micro4 Controller, World Precision Instruments Inc., Hertfordshire, UK) mounted on a microscope. Human α7 and α4β2 nAChRs were expressed through microinjection, into the oocyte nucleus, of α7 mRNA and of a 1:1 (w/w) mixture of α4 and β2 cDNAs (a ratio favoring expression of the α4_3β2_2 population over the α4_2β2_3 population) (50 nL at 1 µg/µL) in a pRc/CMV expression vector (Invitrogen). Oocytes were maintained at 18 °C and TEVC recordings were performed 1–4 days later in a room with controlled temperature (20 °C).
Manual TEVC on α1_2βγδ nAChR oocytes was carried out using an OC-725B amplifier (Warner Instrument Corp., Hamden, CT, USA). Voltage and current borosilicate glass microelectrodes were filled with KCl 3 M and had 0.5–1.5 MΩ tip resistances. For data acquisition and recording, a pCLAMP-9/Digidata-1322A system (Molecular Devices, San Jose, CA, USA) was used. The oocyte recording chamber of 300 μL was superfused at a high rate (8–12 mL.min^−1) with a modified oocyte Ringer’s solution made of HEPES 5 mM pH 7.4, NaCl 100 mM, KCl 2.8 mM, and BaCl2 0.3 mM, where BaCl2 substitution to the original CaCl2 prevents secondary activation of a Ca^2+-dependent Cl^− current. […]

Test [3] addresses T1, L-AChBP. The test can be described thus: Scintillation proximity assay, competition against [3H]epibatidine binding to L-AChBP. The method, then: as §1, §2, §3
Where [4] appears, read: calculated from the rate constants, read-out: Kd/(koff/kon).
The mark [5] stands for this setting: quenching of native Trp fluorescence.
Where [6] appears, read: quenching of native Trp fluorescence, read-out: koff (converted).
[7] abbreviates: stopped-flow on pre-equilibrated complexes, single experiment in triplicate, read-out: Kd/SFeq.
Setting [8] is: stopped-flow with competing gallamine in large excess, read-out: koff/GAL (converted).
The mark [9] stands for this setting: read-out: Kd values (range of magnitude).

Chain of A-AChBP (Q8WSF8 entry or part of it): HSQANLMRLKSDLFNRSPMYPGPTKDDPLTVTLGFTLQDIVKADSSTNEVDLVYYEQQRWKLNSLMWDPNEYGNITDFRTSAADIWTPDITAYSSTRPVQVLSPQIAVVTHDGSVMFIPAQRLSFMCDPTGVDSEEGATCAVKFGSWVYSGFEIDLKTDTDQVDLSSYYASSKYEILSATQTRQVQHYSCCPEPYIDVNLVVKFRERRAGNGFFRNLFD
Chain of Torpedo muscle-type α1_2βγδ nAChR (P02711 25-461): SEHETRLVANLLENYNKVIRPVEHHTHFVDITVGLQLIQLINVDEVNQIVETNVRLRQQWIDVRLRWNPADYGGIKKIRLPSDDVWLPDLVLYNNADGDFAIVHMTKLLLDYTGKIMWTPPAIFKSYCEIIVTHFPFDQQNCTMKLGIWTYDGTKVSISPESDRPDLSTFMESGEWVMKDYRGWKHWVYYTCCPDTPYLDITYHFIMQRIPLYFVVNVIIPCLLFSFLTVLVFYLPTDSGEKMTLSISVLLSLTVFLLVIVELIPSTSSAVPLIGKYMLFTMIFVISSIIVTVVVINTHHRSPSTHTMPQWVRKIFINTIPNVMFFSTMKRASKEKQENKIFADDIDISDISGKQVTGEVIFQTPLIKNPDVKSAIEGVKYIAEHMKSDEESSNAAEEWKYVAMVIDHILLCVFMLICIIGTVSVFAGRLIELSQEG
Chain of Torpedo muscle-type α1_2βγδ nAChR (Q6S3H9 18-505): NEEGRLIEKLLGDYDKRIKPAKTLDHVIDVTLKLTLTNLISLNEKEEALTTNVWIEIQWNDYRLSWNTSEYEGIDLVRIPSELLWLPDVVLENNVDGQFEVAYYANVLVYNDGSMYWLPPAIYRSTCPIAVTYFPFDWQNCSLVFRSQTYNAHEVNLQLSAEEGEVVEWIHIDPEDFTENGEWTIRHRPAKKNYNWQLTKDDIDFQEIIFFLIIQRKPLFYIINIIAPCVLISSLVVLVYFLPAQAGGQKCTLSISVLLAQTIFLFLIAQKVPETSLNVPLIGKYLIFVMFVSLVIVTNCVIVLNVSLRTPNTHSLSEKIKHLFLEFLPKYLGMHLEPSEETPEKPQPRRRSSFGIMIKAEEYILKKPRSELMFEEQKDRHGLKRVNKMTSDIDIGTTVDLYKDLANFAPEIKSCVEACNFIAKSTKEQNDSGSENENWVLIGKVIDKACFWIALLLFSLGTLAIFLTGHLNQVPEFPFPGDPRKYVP
Chain of Torpedo muscle-type α1_2βγδ nAChR (Q6S3H8 22-522): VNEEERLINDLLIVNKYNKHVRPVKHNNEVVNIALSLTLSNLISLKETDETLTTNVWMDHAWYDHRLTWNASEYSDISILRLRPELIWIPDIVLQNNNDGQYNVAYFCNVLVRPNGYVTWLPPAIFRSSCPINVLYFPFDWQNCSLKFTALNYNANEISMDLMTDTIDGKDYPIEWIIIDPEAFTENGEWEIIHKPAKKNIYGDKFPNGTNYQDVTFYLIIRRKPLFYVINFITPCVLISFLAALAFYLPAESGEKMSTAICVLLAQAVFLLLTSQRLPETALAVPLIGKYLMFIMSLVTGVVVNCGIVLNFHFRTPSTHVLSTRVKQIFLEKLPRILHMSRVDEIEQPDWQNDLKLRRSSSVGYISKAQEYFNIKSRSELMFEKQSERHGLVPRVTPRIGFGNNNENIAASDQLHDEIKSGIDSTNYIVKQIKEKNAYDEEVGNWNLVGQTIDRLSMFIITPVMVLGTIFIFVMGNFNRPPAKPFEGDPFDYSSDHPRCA
Chain of Torpedo muscle-type α1_2βγδ nAChR (Q6S3I0 25-493 partner): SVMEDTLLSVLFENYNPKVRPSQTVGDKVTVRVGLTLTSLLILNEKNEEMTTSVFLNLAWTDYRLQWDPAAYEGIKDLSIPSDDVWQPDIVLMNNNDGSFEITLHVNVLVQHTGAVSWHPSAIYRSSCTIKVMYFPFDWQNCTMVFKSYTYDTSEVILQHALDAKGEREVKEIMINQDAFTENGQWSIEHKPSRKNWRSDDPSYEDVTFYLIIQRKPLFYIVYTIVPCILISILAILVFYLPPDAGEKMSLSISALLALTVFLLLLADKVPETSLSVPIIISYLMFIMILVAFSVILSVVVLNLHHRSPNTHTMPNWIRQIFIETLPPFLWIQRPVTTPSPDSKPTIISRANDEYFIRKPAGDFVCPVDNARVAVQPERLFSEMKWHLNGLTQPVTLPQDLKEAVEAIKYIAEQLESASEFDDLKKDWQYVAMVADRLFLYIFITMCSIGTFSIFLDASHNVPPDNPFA

On to `CC1=NCCCC12CCCCC21OCCO1` (racemic) [Racemic (±)-4, 7-methyl-1,4-dioxa-8-azadispiro[4.0.5.4]pentadec-7-ene], for which the Kd was 2400 ± 1500 nM on A-AChBP; 1700 nM at L-AChBP [1] (setting [4]); 15000 nM at L-AChBP [1] (stopped-flow on pre-equilibrated complexes, biphasic curve, read-out: Kd/SFeq, second constant from a biphasic curve); 320 nM on L-AChBP [1] (setting [7]); 2600 ± 1900 nM at L-AChBP [3]. Further, the kon at L-AChBP [1] (setting [5]) was 6e+07 M⁻¹ s⁻¹. The values for the koff on L-AChBP [1] (setting [6]) and at L-AChBP [1] (setting [8]) were 103 s⁻¹ and 112 s⁻¹, respectively. Besides, the “recovery of the ACh-evoked current after washout of bound spiroimine” value in test [2] (10 µM spiroimine, washout with ACh, desensitized state) is “full recovery of the nicotinic current”. Further, in test [2], the “Hill Slope” value was ~1 ^b.
For the molecule `CC1=NCCC[C@]12CCCCC21OCCO1` [Spiroimine (+)-4 R, 7-methyl-1,4-dioxa-8-azadispiro[4.0.5.4]pentadec-7-ene], the Kd on A-AChBP is 2300 ± 400 nM; at L-AChBP [1] (setting [7]), 12000 nM; on L-AChBP [1] (setting [9]), roughly 10000 nM; on L-AChBP [3], 12000 ± 3000 nM. Further, the “higher affinity compared to enantiomer (−)-4 S” value at L-AChBP [1] (L-AChBP (text: the two AChBPs)) is “ca. 2 fold”. Besides, the “Hill Slope” value in test [2] is ~1 ^b.
As for `CC1=NCCC[C@@]12CCCCC21OCCO1` [Spiroimine (−)-4 S, 7-methyl-1,4-dioxa-8-azadispiro[4.0.5.4]pentadec-7-ene], the Kd was 2400 ± 500 nM at A-AChBP; 410 nM at L-AChBP [1] (setting [4]); 320 nM at L-AChBP [1] (setting [7]); roughly 100 nM on L-AChBP [1] (setting [9]); 3400 nM on L-AChBP [3]. This molecule had a kon on L-AChBP [1] (setting [5]) of 1.3e+08 M⁻¹ s⁻¹. For the same molecule, the results for the koff at L-AChBP [1] (setting [6]) and at L-AChBP [1] (setting [8]) were 53.3 s⁻¹ and 103 s⁻¹, respectively. Moreover, the “Hill Slope” value in test [2] is reported as ~1 ^b.
